Source: patent US6303630A, “Diarylsulfone non-nucleoside reverse transcriptase inhibitors of human immunodeficiency virus” (University of the Sciences in Philadelphia, priority 2000, dated 2001)

What follows are compounds tested on HIV-1 (assay: NCI in vitro anti-HIV drug screen: XTT-formazan assay, protection of T4 lymphocytes (CEM) from HIV-1 cytopathic effects). Conditions: Human immunodeficiency virus 1, CCRF-CEM, 144 h; HIV-1 infected CEM cells, 6 days, XTT; approximate values; read-out: EC50 (50% effective concentration against HIV cytopathic effects).
Format: cell-based, human immunodeficiency virus (HIV-1)
Protocol: Compounds of the present invention were evaluated for anti-HIV efficacy by the National Cancer Institute's (NCI) In Vitro Anti AIDS Drug Discovery Program.
(§1) The NCI procedure is fully described, for example, in a bulletin provided by the National Institutes of Health, National Cancer Institute, Bethesda, Md. 20892, all of which is incorporated herein by reference. As related in the NCI bulletin, the procedure is based on O. W. Weislow et al., "New soluble-formazan assay for HIV-1 cytopathic effects: application to high flux screening of synthetic and natural products for AIDS-antiviral activity", J. Natl. Cancer Inst. 81:577-586 (1989), and is used to test for compounds active against human immunodeficiency virus (HIV), and is designed to detect compounds active at any stage of the virus reproductive cycle. As further related in the NCI bulletin, the assay includes killing of T4 lymphocytes by HIV. Amounts of HIV are added to cells, with a minimum of two cycles of virus reproduction found to be necessary to obtain the required cell killing. Compounds that interact with virions, cells, or virus gene-products to interfere with viral activities will protect cells from cytolysis. All were compared with a positive (e.g., AZT-treated) control evaluation at the same time under identical conditions. The procedure is set forth as follows:
(§2) A candidate compound is first dissolved in a suitable solvent, preferably dimethyl sulfoxide, then diluted 1:100 in cell culture medium before preparing serial half-log10 dilutions. T4 lymphocytes (CEM cell line) are then added and after a brief interval HIV-1 is added, resulting in a 1:200 final dilution of the compound. Uninfected cells with the compound serve as a toxicity control, and infected and uninfected without the compound serve as basic controls. Cultures are then incubated at 37° in a 5% carbon dioxide atmosphere for 6 days. The tetrazolium salt, XTT, is added to all wells, and cultures are incubated to allow formazan color development by viable cells. Individual wells are analyzed spectrophotometrically to quantitate formazan product, and in addition are viewed microscopically for detection of viable cells and confirmation of protective activity. Drug-treated virus-infected cells are compared with drug-treated noninfected cells and with other appropriate controls (untreated infected and untreated noninfected cells, drug-containing wells without cells, etc.) on the same plate. Data are reviewed in comparison with other tests performed at the same time and a determination as to activity is made.

Row | SMILES | EC50
1 | CNc1ccc(Cl)cc1S(=O)(=O)c1ccccc1[N+](=O)[O-] [Compound 72, 2-(2-nitrophenylsulfonyl)4-chloro-N-methylaniline] | 75 nM

Same assay, conditions: Human immunodeficiency virus 1, CCRF-CEM, dose 2.00 × 10^-4 Molar; read-out: Percent of Protection

Row | SMILES | inhibition at 200 µM
2 | CNc1ccc(Cl)cc1S(=O)(=O)c1ccccc1[N+](=O)[O-] [Compound 72, 2-(2-nitrophenylsulfonyl)4-chloro-N-methylaniline] | 74%

Same assay, conditions: Human immunodeficiency virus 1, CCRF-CEM, dose 2.00 × 10^-5 Molar; read-out: Percent of Protection

Row | SMILES | inhibition at 20 µM
3 | CNc1ccc(Cl)cc1S(=O)(=O)c1ccccc1[N+](=O)[O-] [Compound 72, 2-(2-nitrophenylsulfonyl)4-chloro-N-methylaniline] | 84%

Same assay, conditions: Human immunodeficiency virus 1, CCRF-CEM, dose 2.00 × 10^-6 Molar; read-out: Percent of Protection

Row | SMILES | inhibition at 2 µM
4 | CNc1ccc(Cl)cc1S(=O)(=O)c1ccccc1[N+](=O)[O-] [Compound 72, 2-(2-nitrophenylsulfonyl)4-chloro-N-methylaniline] | 93.4%

Same assay, conditions: Human immunodeficiency virus 1, CCRF-CEM, dose 2.00 × 10^-7 Molar; read-out: Percent of Protection

Row | SMILES | inhibition at 0.2 µM
5 | CNc1ccc(Cl)cc1S(=O)(=O)c1ccccc1[N+](=O)[O-] [Compound 72, 2-(2-nitrophenylsulfonyl)4-chloro-N-methylaniline] | 76%

Same assay, conditions: Human immunodeficiency virus 1, CCRF-CEM, dose 6.32 × 10^-5 Molar; read-out: Percent of Protection

Row | SMILES | inhibition at 63.2 µM
6 | CNc1ccc(Cl)cc1S(=O)(=O)c1ccccc1[N+](=O)[O-] [Compound 72, 2-(2-nitrophenylsulfonyl)4-chloro-N-methylaniline] | 85.5%

Same assay, conditions: Human immunodeficiency virus 1, CCRF-CEM, dose 6.33 × 10^-6 Molar; read-out: Percent of Protection

Row | SMILES | inhibition at 6.33 µM
7 | CNc1ccc(Cl)cc1S(=O)(=O)c1ccccc1[N+](=O)[O-] [Compound 72, 2-(2-nitrophenylsulfonyl)4-chloro-N-methylaniline] | 93.3%

Same assay, conditions: Human immunodeficiency virus 1, CCRF-CEM, dose 6.34 × 10^-7 Molar; read-out: Percent of Protection

Row | SMILES | inhibition at 0.634 µM
8 | CNc1ccc(Cl)cc1S(=O)(=O)c1ccccc1[N+](=O)[O-] [Compound 72, 2-(2-nitrophenylsulfonyl)4-chloro-N-methylaniline] | 102%

Same assay, conditions: Human immunodeficiency virus 1, CCRF-CEM, dose 6.35 × 10^-8 Molar; read-out: Percent of Protection

Row | SMILES | inhibition at 0.0635 µM
9 | CNc1ccc(Cl)cc1S(=O)(=O)c1ccccc1[N+](=O)[O-] [Compound 72, 2-(2-nitrophenylsulfonyl)4-chloro-N-methylaniline] | 46.1%

Same assay, conditions: Human immunodeficiency virus 1, Lymphocyte, dose 2.00 × 10^-4 Molar; read-out: Percent of Control, Infected

Row | SMILES | activity at 200 µM
10 | CNc1ccc(Cl)cc1S(=O)(=O)c1ccccc1[N+](=O)[O-] [Compound 72, 2-(2-nitrophenylsulfonyl)4-chloro-N-methylaniline] | 74.5%

Same assay, conditions: Human immunodeficiency virus 1, Lymphocyte, dose 2.00 × 10^-5 Molar; read-out: Percent of Control, Infected

Row | SMILES | activity at 20 µM
11 | CNc1ccc(Cl)cc1S(=O)(=O)c1ccccc1[N+](=O)[O-] [Compound 72, 2-(2-nitrophenylsulfonyl)4-chloro-N-methylaniline] | 84.3%

Same assay, conditions: Human immunodeficiency virus 1, Lymphocyte, dose 2.00 × 10^-6 Molar; read-out: Percent of Control, Infected

Row | SMILES | activity at 2 µM
12 | CNc1ccc(Cl)cc1S(=O)(=O)c1ccccc1[N+](=O)[O-] [Compound 72, 2-(2-nitrophenylsulfonyl)4-chloro-N-methylaniline] | 93.6%

Same assay, conditions: Human immunodeficiency virus 1, Lymphocyte, dose 2.00 × 10^-7 Molar; read-out: Percent of Control, Infected

Row | SMILES | activity at 0.2 µM
13 | CNc1ccc(Cl)cc1S(=O)(=O)c1ccccc1[N+](=O)[O-] [Compound 72, 2-(2-nitrophenylsulfonyl)4-chloro-N-methylaniline] | 76.5%

Same assay, conditions: Human immunodeficiency virus 1, Lymphocyte, dose 6.32 × 10^-5 Molar; read-out: Percent of Control, Infected

Row | SMILES | activity at 63.2 µM
14 | CNc1ccc(Cl)cc1S(=O)(=O)c1ccccc1[N+](=O)[O-] [Compound 72, 2-(2-nitrophenylsulfonyl)4-chloro-N-methylaniline] | 85.8%

Same assay, conditions: Human immunodeficiency virus 1, Lymphocyte, dose 6.33 × 10^-6 Molar; read-out: Percent of Control, Infected

Row | SMILES | activity at 6.33 µM
15 | CNc1ccc(Cl)cc1S(=O)(=O)c1ccccc1[N+](=O)[O-] [Compound 72, 2-(2-nitrophenylsulfonyl)4-chloro-N-methylaniline] | 93.4%

Same assay, conditions: Human immunodeficiency virus 1, Lymphocyte, dose 6.34 × 10^-7 Molar; read-out: Percent of Control, Infected

Row | SMILES | activity at 0.634 µM
16 | CNc1ccc(Cl)cc1S(=O)(=O)c1ccccc1[N+](=O)[O-] [Compound 72, 2-(2-nitrophenylsulfonyl)4-chloro-N-methylaniline] | 102%

Same assay, conditions: Human immunodeficiency virus 1, Lymphocyte, dose 6.35 × 10^-8 Molar; read-out: Percent of Control, Infected

Row | SMILES | activity at 0.0635 µM
17 | CNc1ccc(Cl)cc1S(=O)(=O)c1ccccc1[N+](=O)[O-] [Compound 72, 2-(2-nitrophenylsulfonyl)4-chloro-N-methylaniline] | 47.1%

Same assay, conditions: IC50/EC50

Row | SMILES | TI50 (IC/EC), Therapeutic Index
18 | CNc1ccc(Cl)cc1S(=O)(=O)c1ccccc1[N+](=O)[O-] [Compound 72, 2-(2-nitrophenylsulfonyl)4-chloro-N-methylaniline] | > 2.67 × 10^+3

What follows are compounds tested on T4 lymphocytes (CEM cell line) (assay: Cell growth / toxicity control in uninfected T4 lymphocytes (CEM), XTT-formazan). Conditions: Homo sapiens, CCRF-CEM, 144 h, uninfected CEM cells, 6 days, XTT; approximate values; read-out: IC50 (50% inhibitory concentration for cell growth).
Format: cell-based
Text: as §1, §2

Row | SMILES | IC50
19 | CNc1ccc(Cl)cc1S(=O)(=O)c1ccccc1[N+](=O)[O-] [Compound 72, 2-(2-nitrophenylsulfonyl)4-chloro-N-methylaniline] | > 200000 nM

Same assay, conditions: Homo sapiens, CCRF-CEM, dose 2.00 × 10^-4 Molar; read-out: Percent of Control, Uninfected

Row | SMILES | activity at 200 µM
20 | CNc1ccc(Cl)cc1S(=O)(=O)c1ccccc1[N+](=O)[O-] [Compound 72, 2-(2-nitrophenylsulfonyl)4-chloro-N-methylaniline] | 84%

Same assay, conditions: Homo sapiens, CCRF-CEM, dose 2.00 × 10^-5 Molar; read-out: Percent of Control, Uninfected

Row | SMILES | activity at 20 µM
21 | CNc1ccc(Cl)cc1S(=O)(=O)c1ccccc1[N+](=O)[O-] [Compound 72, 2-(2-nitrophenylsulfonyl)4-chloro-N-methylaniline] | 93.6%

Same assay, conditions: Homo sapiens, CCRF-CEM, dose 2.00 × 10^-6 Molar; read-out: Percent of Control, Uninfected

Row | SMILES | activity at 2 µM
22 | CNc1ccc(Cl)cc1S(=O)(=O)c1ccccc1[N+](=O)[O-] [Compound 72, 2-(2-nitrophenylsulfonyl)4-chloro-N-methylaniline] | 95.8%

Same assay, conditions: Homo sapiens, CCRF-CEM, dose 2.00 × 10^-7 Molar; read-out: Percent of Control, Uninfected

Row | SMILES | activity at 0.2 µM
23 | CNc1ccc(Cl)cc1S(=O)(=O)c1ccccc1[N+](=O)[O-] [Compound 72, 2-(2-nitrophenylsulfonyl)4-chloro-N-methylaniline] | 102%

Same assay, conditions: Homo sapiens, CCRF-CEM, dose 6.32 × 10^-5 Molar; read-out: Percent of Control, Uninfected

Row | SMILES | activity at 63.2 µM
24 | CNc1ccc(Cl)cc1S(=O)(=O)c1ccccc1[N+](=O)[O-] [Compound 72, 2-(2-nitrophenylsulfonyl)4-chloro-N-methylaniline] | 97%

Same assay, conditions: Homo sapiens, CCRF-CEM, dose 6.33 × 10^-6 Molar; read-out: Percent of Control, Uninfected

Row | SMILES | activity at 6.33 µM
25 | CNc1ccc(Cl)cc1S(=O)(=O)c1ccccc1[N+](=O)[O-] [Compound 72, 2-(2-nitrophenylsulfonyl)4-chloro-N-methylaniline] | 101%

Same assay, conditions: Homo sapiens, CCRF-CEM, dose 6.34 × 10^-7 Molar; read-out: Percent of Control, Uninfected

Row | SMILES | activity at 0.634 µM
26 | CNc1ccc(Cl)cc1S(=O)(=O)c1ccccc1[N+](=O)[O-] [Compound 72, 2-(2-nitrophenylsulfonyl)4-chloro-N-methylaniline] | 101%

Same assay, conditions: Homo sapiens, CCRF-CEM, dose 6.35 × 10^-8 Molar; read-out: Percent of Control, Uninfected

Row | SMILES | activity at 0.0635 µM
27 | CNc1ccc(Cl)cc1S(=O)(=O)c1ccccc1[N+](=O)[O-] [Compound 72, 2-(2-nitrophenylsulfonyl)4-chloro-N-methylaniline] | 99%
